In brackets after ≈: the same amount, converted by molar mass. Entries after “also recorded” stand apart in the source; their conditions may differ.
Legend:
HEK293 cells = test: Treatment of HEK293 cells with MitoBloCK-6; assay type: cell-based; details: unpublished data
Protocol: For microscopy experiments, HeLa or HEK293 cells were transiently transfected with Su9-EGFP (Lipofectamine, Invitrogen) at 80% confluency. 12 hours post transfection, cells were co-labeled with Mitotracker red CMXRos (Invitrogen) and visualized with a microscope (Axiovert 200M Carl Zeiss) using a Plan-Fluor 63× oil objective. Images were acquired at room temperature with a charge-coupled device camera (ORCA ER, Hamamatsu Photonics) controlled by Axiovision software (Carl Zeiss). Image files were processed by Photoshop software (Adobe). […] For cyt c release assays, a cell fractionation kit (MitoSciences) was used. Briefly, HeLa or HEK293 cells were grown in 10 cm^2 dishes to 80% confluency and then cells were treated with DMSO or MitoBloCK-6 in complete medium for 12-16 h. […] Cells were fractionated to obtain cytosolic and mitochondrial fractions; 100 μg of each fraction was analyzed by SDS-PAGE. Blots were probed with ApoTrack cyt c apoptosis antibody cocktail (MitoSciences).

Erv1 [1] = molecular target: T1, Erv1 (Saccharomyces cerevisiae, UniProt P27882); test: In vitro Erv1 oxidase activity, Amplex Red-HRP assay; assay type: biochemical, yeast
T1 construct: made in house
T1 sequence (P27882 1-189): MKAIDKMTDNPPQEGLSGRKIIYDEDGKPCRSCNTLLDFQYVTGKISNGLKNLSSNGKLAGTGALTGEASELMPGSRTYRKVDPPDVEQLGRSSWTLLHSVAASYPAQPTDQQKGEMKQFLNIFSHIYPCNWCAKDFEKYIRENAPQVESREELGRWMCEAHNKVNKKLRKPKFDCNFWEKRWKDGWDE
Protocol: The primary chemical screen used fresh recombinant Erv1 (in buffer 30 mM Hepes, pH 7.4, 100 mM NaCl, 1 mM EDTA) at a concentration of 10 μM, which was expressed as described previously. […] A Biomek FX (Beckman Coulter) was used to pin transfer 0.5 μl of compound from 1 mM stock or DMSO to respective wells. Approximate screening
concentration was 12.5 μM. After completed compound transfer, all plates were incubated at 25° C. in a humidified incubator for 1 hour. A Titertek multidrop was used to dispense 15 μl of Amplex Red-horseradish peroxidase (HRP) (Sigma) mix into all wells of the 384-well plate. The final concentration of Amplex Red and HRP were 46 μM and 0.092 U/ml, respectively. The Amplex Red-HRP solution was shielded from light during the entire experiment. The plates were incubated for an additional 10 min and then 15 μl of the substrate DTT (20 μM) was added to initiate the reduction of 02 to H2O2. […] Plates were then read at an endpoint using an excitation wavelength of 545 nm and an emission wavelength of 590 nm. […]
H2O2 production was measured using a standard fluorometric assay with Amplex Red and horseradish peroxidase (HRP). […] Fluorescence intensity was measured and reactions that were inhibited by more than 50% were picked as potential Erv1 inhibitors and selected for secondary analysis.

[2] = system: Δpdr5Δsnq2 strain overexpressing Erv1; test: Yeast growth inhibition (MIC50), Δpdr5Δsnq2 strain overexpressing Erv1; assay type: cell-based; details: Saccharomyces cerevisiae; Δpdr5Δsnq2 overexpressing Erv1 from high copy plasmid
Protocol: For MIC50 analysis in the yeast strains, serial dilution of MitoBloCK-6 (0.5 μl) was pinned into assay plate wells containing 50 μl of yeast (Table 2) in rich ethanol-glycerol media (starting OD600=0.0002). Plates were then incubated at 25° C. in a humidified chamber for 40 hours. Each plate was shaken in a Beckman orbital shaker to resuspend settled cells, and the OD600 in each well was read by a Wallac Victor plate reader (Perkin Elmer).

Erv1 [3] = molecular target: T1, Erv1; test: Erv1-His pull-down of partner proteins from mitochondria; assay type: binding, yeast; details: 50 μM, 30 min
Protocol: (A) Mitochondria from a strain expressing C-terminal histidine-tagged Erv1 were incubated with 50 μM MitoBloCK-6 or 1% DMSO for 30 min at 25° C. followed by solubilization in 1% digitonin buffer. As a control, 100 μg of extract was withdrawn (T), and 500 μg lysate was incubated with Ni+^2-agarose beads. The beads were washed and bound proteins (B) were eluted with SDS-PAGE sample buffer. To test effectiveness of binding, 100 μg of the unbound protein fraction (S) was also included. Proteins were analyzed by immunoblotting with polyclonal antibodies against Mia40, Erv1, and cyt c. (B) Recombinant Erv1 was preincubated with MitoBloCK-6 or 1% DMSO for 1 hr at 25° C. and then Erv1 (1 μM) was incubated with reduced Tim13 (15 μM) and Mia40 (1 μM) in a time course assay (Tienson et al., 2009). Aliquots were removed at the indicated times and free thiols on Tim13 were modified with AMS addition. Oxidized and reduced Tim13 were detected by non-reducing SDS-PAGE and immunoblotting with antibodies against Tim13.
MitoBloCK-6 was preincubated with mitochondria isolated from the Erv1-His strain followed by solubilization in 1.0% digitonin and Erv1-His was purified with Ni′ agarose. In DMSO treated cells, a small fraction of the Mia40 and half of the cyt c co-purified with Erv1, as reported previously (Tienson et al., 2009). […]

WT mitochondria = test: In vitro import of AAC into wild-type mitochondria; assay type: biochemical, yeast
Protocol: Prior to import into purified mitochondria, ^35S-methionine and cysteine labeled proteins were generated with TNT Quick Coupled Transcription/Translation kits (Promega) and plasmids carrying the gene of interest. Transcription of genes was driven by either a T7 or SP6 promoter. Import reactions were conducted according to established methods. After frozen mitochondria aliquots were thawed and added to the import buffer at a final concentration of 100 μg/mL, drug or DMSO vehicle was added as indicated. A final vehicle concentration of 1% was used in all experiments. Following 15 minute incubation at 25° C., import reactions were initiated by the addition of […] of translation mix. Aliquots were removed at intervals during the reaction timecourse and import was terminated with either cold buffer, 25 μg/mL trypsin, or a combination of both. If trypsin was added to digest unimported precursor protein, soybean trypsin inhibitor (STI) was subsequently added in excess after 15 minute incubation on ice. After a final recovery of by centrifugation (8,000×g, 5 minutes), mitochondria were disrupted in Laemmli sample buffer. Imports of membrane proteins (AAC, PiC, Tom40, Tim22, and Tim23) included a carbonate extraction step to remove proteins that had not inserted into the membrane (Koehler C M, et al. (1998), Science 279:369-373). […]

[4] = system: tim10-1 tim9S suppressor strain; test: Yeast growth inhibition (MIC50), tim10-1 tim9S suppressor strain; assay type: cell-based; details: Saccharomyces cerevisiae; disrupted for prd5 and snq2
HeLa cells = test: MTT cell viability assay in HeLa cells (MitoBloCK-1); assay type: cell-based; details: 25 μM and 50 μM, 24 hours
Protocol: Measurements of cell viability/toxicity were made with a MTT based toxicology assay kit (Sigma-Aldrich). HeLa cells were grown in 24-well tissue culture dishes to 80% confluency. […] Following drug treatment, cells were rinsed with phosphate buffered saline and incubated with complete media with MTT solution supplement for additional 4 hours as described in manufacturer's protocols. This media was removed and 500 μL of MTT solubilization solution was added to dissolve the formazan crystals. The formazan absorbance was measured at OD=570 nm on a Wallac Victor plate reader (Perkin Elmer) along with a turbidity measurement at OD=630 nm. After turbidity subtraction, the percent viability of each cell sample was calculated as: [(absorbance of vehicle treated cells−absorbance of drug treated cells)/(absorbance of vehicle treated cells)]×100.

Row | SMILES | morphology and viability in HEK293 cells (HEK293 cells) | IC50 (Erv1 [1]) | MIC50 [2] | binding of Mia40 to Erv1 decreased by (Erv1 [3]) | binding of cyt c to Erv1 decreased by (Erv1 [3]) | import of AAC into WT mitochondria (WT mitochondria) | MIC50 [4] | cell viability (MTT) (HeLa cells)
1 | Oc1c(Cl)cc(Cl)cc1/C=N/c1ccc(Nc2ccccc2)cc1 [MitoBloCK-6] | showed similar results | 900 nM | 28.3 µM (≈ 10.1 µg/mL) | 75% | 95% | – | – | –
2 | NC(=S)N/N=C/c1c(O)c(Br)cc2oc3c(c12)CCCC3 [MitoBloCK-1] | – | – | – | – | – | did not inhibit import; also recorded: does not inhibit AAC import | 10 µM (≈ 3.68 µg/mL) | significantly decreased in a dose-responsive manner

From patent US10758513B2, “Modulators of mitochondrial protein import” (THE REGENTS OF THE UNIVERSITY OF CALIFORNIA, priority 2011, dated 2020)
